Experimental data from US9221809B2 (MERCK SHARP & DOHME CORP., priority 2011, dated 2015).
Counter-ions that a name gives are not always drawn. Like-named read-outs stand apart in the source and are kept apart here.

Biological target: IRAK4 (Homo sapiens (Human), UniProt Q9NWZ3)
Assay: IRAK4 kinase activity, IMAP fluorescence polarization assay
Format: biochemical
Details: 100 μM ATP
Procedure, shortened: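 GST-tagged IRAK4 at 0.5 nM phosphorylates 100 nM fluorescent peptide substrate with 100 μM ATP in pH 7.2 Tris buffer containing MgCl2, DTT and Tween 20, 30 min at 25 °C. Reaction stopped with IMAP binding reagent; phosphorylation read as increased fluorescence polarization.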

[1] = 0.5 nM GST tagged IRAK4, read-out: IRAK4 IC50
[2] = unit inferred, read-out: IRAK4 IC50

IRAK4, sequence (Q9NWZ3 whole entry): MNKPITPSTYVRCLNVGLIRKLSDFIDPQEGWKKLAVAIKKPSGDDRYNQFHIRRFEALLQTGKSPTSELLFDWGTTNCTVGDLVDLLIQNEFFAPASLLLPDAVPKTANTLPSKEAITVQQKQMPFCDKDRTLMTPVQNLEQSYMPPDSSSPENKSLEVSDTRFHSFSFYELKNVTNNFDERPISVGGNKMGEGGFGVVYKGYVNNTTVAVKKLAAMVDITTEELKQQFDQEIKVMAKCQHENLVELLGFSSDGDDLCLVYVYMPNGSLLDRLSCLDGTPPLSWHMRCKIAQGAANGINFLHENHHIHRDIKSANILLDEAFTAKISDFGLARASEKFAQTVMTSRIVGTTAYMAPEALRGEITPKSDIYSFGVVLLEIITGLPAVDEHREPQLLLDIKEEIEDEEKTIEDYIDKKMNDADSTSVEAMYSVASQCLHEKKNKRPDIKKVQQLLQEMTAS

SMILES | IC50 (read-out: IC50) | IC50 [1] | other results
O=c1[nH]c(N2CCN(c3nncs3)CC2)nc(N[C@@H]2CCCNC2)c1-c1nc2ccccc2s1 [Example 163, (R)-2-(4-(1,3,4-thiadiazol-2-yl)piperazin-1-yl)-5-(benzo[d]thiazol-2-yl)-6-(piperidin-3-ylamino)pyrimidin-4(3H)-one] |  |  | IC50 (read-out: IRAK4 IC50): 20 nM
Cc1csc(-c2c(N[C@@H]3C[C@H](CO)[C@@H](O)[C@H]3O)nc(N3CCOCC3)[nH]c2=O)n1 [Example 32, 6-(((1R,2S,3R,4R)-2,3-Dihydroxy-4-(hydroxymethyl)cyclopentyl)amino)-5-(4-methylthiazol-2-yl)-2-morpholinopyrimidin-4(3H)-one.HCl] |  | 26.6 nM | 
Cc1cccc(-c2c(N[C@@H]3CCCNC3)nc(N3CCOCC3)[nH]c2=O)n1 [Example 109, (R)-5-(6-methylpyridin-2-yl)-2-morpholino-6-(piperidin-3-ylamino)pyrimidin-4(3H)-one] |  | 1470 nM | 
COc1ccc(N2CCN(c3nc(N[C@@H]4CCCNC4)c(-c4nc5ccccc5s4)c(=O)[nH]3)CC2)nc1 [Example 141, (R)-5-(benzo[d]thiazol-2-yl)-2-(4-(5-methoxypyridin-2-yl)piperazin-1-yl)-6-(piperidin-3-ylamino)pyrimidin-4(3H)-one] |  |  | IC50 (read-out: IRAK4 IC50): 5 nM
C[C@H]1C[C@@H](Nc2nc(N3CCOCC3)[nH]c(=O)c2-c2ccc3ccccc3n2)[C@H](O)[C@@H]1O [Example 46, 6-((1R,2S,3R,4S)-2,3-Dihydroxy-4-methylcyclopentylamino)-2-morpholino-5-(quinolin-2-yl)pyrimidin-4(3H)-one.HCl] |  | 5 nM | 
Cc1ccc(-c2c(N[C@@H]3CCCNC3)nc(N3CCOCC3)[nH]c2=O)nc1 [Example 110, (R)-5-(5-methylpyridin-2-yl)-2-morpholino-6-(piperidin-3-ylamino)pyrimidin-4(3H)-one] |  | 872 nM | 
O=c1[nH]c(N2CCc3cnccc3C2)nc(N[C@@H]2C[C@H](CO)[C@@H](O)[C@H]2O)c1-c1nc2ccccc2s1 [Example 74, 5-(benzo[d]thiazol-2-yl)-2-(3,4-dihydro-2,6-naphthyridin-2(1H)-yl)-6-((1R,2S,3R,4R)-2,3-dihydroxy-4-(hydroxymethyl)cyclopentylamino)pyrimidin-4(3H)-one] |  |  | IC50 [2]: 26.4 nM
O=c1[nH]c(N2CCN(c3cccnc3)CC2)nc(N[C@@H]2C[C@H](CO)[C@@H](O)[C@H]2O)c1-c1nc2ccccc2s1 [Example 63, 5-(benzo[d]thiazol-2-yl)-6-((1R,2S,3R,4R)-2,3-dihydroxy-4-(hydroxymethyl)cyclopentylamino)-2-(4-(pyridin-3-yl)piperazin-1-yl)pyrimidin-4(3H)-one] |  |  | IC50 [2]: 3.7 nM
O=c1[nH]c(N[C@H]2CCCNC2)nc(N[C@@H]2C[C@H](CO)[C@@H](O)[C@H]2O)c1-c1nc2ccccc2s1 [Example 39, 5-(Benzo[d]thiazol-2-yl)-6-(((1R,2S,3R,4R)-2,3-dihydroxy-4-(hydroxymethyl)cyclopentyl)amino)-2-((S)-piperidin-3-ylamino)pyrimidin-4(3H)-one.HCl] |  | 4260 nM | 
O=C1NC2(CCN(c3nc(N[C@@H]4C[C@H](CO)[C@@H](O)[C@H]4O)c(-c4nc5ccccc5s4)c(=O)[nH]3)CC2)CO1 [Example 81, 8-(5-(benzo[d]thiazol-2-yl)-4-((1R,2S,3R,4R)-2,3-dihydroxy-4-(hydroxymethyl)cyclopentylamino)-6-oxo-1,6-dihydropyrimidin-2-yl)-3-oxa-1,8-diazaspiro[4.5]decan-2-one] |  |  | IC50 [2]: 196 nM
O=c1[nH]c(N2CCOCC2)nc(N[C@@H]2CCCNC2)c1-c1nc2cnccc2s1 [Example 113, (R)-2-morpholino-6-(piperidin-3-ylamino)-5-(thiazolo[4,5-c]pyridin-2-yl)pyrimidin-4(3H)-one.HCl] |  | 12 nM | 
CC(C)(O)[C@H]1C[C@@H](Nc2nc(NC3CCC3)[nH]c(=O)c2-c2nc3ccccc3s2)[C@H](O)[C@@H]1O [Example 45, 5-(Benzo[d]thiazol-2-yl)-2-(cyclobutylamino)-6-((1R,2S,3R,4S)-2,3-dihydroxy-4-(2-hydroxypropan-2-yl)cyclopentylamino)pyrimidin-4(3H)-one.HCl] |  | 65 nM | 
O=c1[nH]c(N2CCC(F)(F)CC2)nc(N[C@@H]2C[C@H](CO)[C@@H](O)[C@H]2O)c1-c1nc2ccccc2s1 [Example 27, 5-(Benzo[d]thiazol-2-yl)-2-(4,4-difluoropiperidin-1-yl)-6-(((1R,2S,3R,4R)-2,3-dihydroxy-4-(hydroxymethyl)cyclopentyl)amino)pyrimidin-4(3H)-one.HCl] |  | 135 nM | 
CC1(C)CN(c2nc(N[C@@H]3CCCNC3)c(-c3nc4ccccc4s3)c(=O)[nH]2)CCO1 [Example 131, (R)-5-(benzo[d]thiazol-2-yl)-2-(2,2-dimethylmorpholino)-6-(piperidin-3-ylamino)pyrimidin-4(3H)-one] |  |  | IC50 (read-out: IRAK4 IC50): 145 nM
C[C@@H]1CC[C@@H](Nc2nc(N3CCOCC3)[nH]c(=O)c2-c2ccc3ccccc3n2)CN1 (racemic) [Example 121, 6-(methylpiperidin-3-yl)amino-2-morpholino-5-(quinolin-2-yl)pyrimidin-4(3H)-one.HCl] |  | 38 nM | 
O=c1[nH]c(N2CCc3ccncc3C2)nc(N[C@@H]2C[C@H](CO)[C@@H](O)[C@H]2O)c1-c1nc2ccccc2s1 [Example 65, 5-(benzo[d]thiazol-2-yl)-2-(3,4-dihydro-2,7-naphthyridin-2(1H)-yl)-6-((1R,2S,3R,4R)-2,3-dihydroxy-4-(hydroxymethyl)cyclopentylamino)pyrimidin-4(3H)-one] |  |  | IC50 [2]: 7.2 nM
O=c1[nH]c(N2CCCC2)nc(N[C@@H]2CCCNC2)c1-c1ccc2ccccc2n1 [Example 114, (R)-6-(piperidin-3-ylamino)-2-(pyrrolidin-1-yl)-5-(quinolin-2-yl)pyrimidin-4(3H)-one.HCl] |  | 24 nM | 
O=c1[nH]c(NC2CCNC2)nc(N[C@@H]2C[C@H](CO)[C@@H](O)[C@H]2O)c1-c1nc2ccccc2s1 (stereo partly drawn) [Example 37, 5-(Benzo[d]thiazol-2-yl)-6-(((1R,2S,3R,4R)-2,3-dihydroxy-4-(hydroxymethyl)cyclopentyl)amino)-2-(pyrrolidin-3-ylamino)pyrimidin-4(3H)-one.HCl] |  | 2000 nM | 
O=c1[nH]c(N2CCC(c3cccnc3)CC2)nc(N[C@@H]2C[C@H](CO)[C@@H](O)[C@H]2O)c1-c1nc2ccccc2s1 [Example 70, 5-(benzo[d]thiazol-2-yl)-6-((1R,2S,3R,4R)-2,3-dihydroxy-4-(hydroxymethyl)cyclopentylamino)-2-(4-(pyridin-3-yl)piperidin-1-yl)pyrimidin-4(3H)-one] |  |  | IC50 [2]: 13.3 nM

Second part, led by results:

IC50 (read-out: IC50) | IC50 [1] | SMILES | other results
450 nM |  | O=c1[nH]c(C2CCN(C3CCCCC3)CC2)nc(N[C@@H]2CCCNC2)c1-c1nc2ccccc2s1 [Example 232, (R)-5-(1,3-benzothiazol-2-yl)-2-(1-cyclo-hexylpiperidin-4-yl)-6-[(piperidin-3-yl)amino]-3,4-dihydropyrimidin-4-one] | 
300 nM |  | CC1CN(c2nc(N[C@@H]3CCCNC3)c(-c3nc4ccccc4s3)c(=O)[nH]2)CC(C)O1 (stereo partly drawn) [Example 294, 5-(benzo[d]thiazol-2-yl)-2-(2,6-dimethylmorpholino)-6-((R)-piperidin-3-ylamino)pyrimidiri-4{3H)-one] | 
1700 nM |  | O=c1[nH]c(N2CCOCC2)nc(NCC(O)CO)c1-c1ccc2ccccc2n1 (stereo not drawn) [Example 281, 6-[(2,3-dihydroxypropyl)amino]-2-(morpholin-4-yl)-5-(quinolin-2-yl)-3,4-dihydropyrimidin-4-one] | 
780 nM |  | CC(O)CNc1nc(N2CCOCC2)[nH]c(=O)c1-c1nc2ccccc2s1 (stereo not drawn) [Example 265, 5-(benzo[d]thiazol-2-yl)-6-(2-hydroxypropylamino)-2-morpholino-pyrimidin-4(3H)-one] | 
466 nM |  | O=c1[nH]c(N2CCOCC2)nc(N[C@@H]2CCCNC2)c1-c1cc2ccccc2cn1 [Example 225, (R)-5-(isoquinolin-3-yl)-2-morpholino-6-(piperidin-3-ylamino)pyrimidin-4(3H)-one] | 
2500 nM |  | CC1(c2ccc(Cl)cc2)CN(c2nc(N[C@@H]3CCCNC3)c(-c3nc4ccccc4s3)c(=O)[nH]2)CCO1 (stereo partly drawn) [Example 319, 5-(benzo[d]thiazol-2-yl)-2-(2-(4-chlorophenyl)-2-methylmorpholino)-6-((R)-piperidin-3-ylamino)pyrimidin-4(3H)-one hydrochloride] | 
258 nM |  | O=C1CCCN1c1cccc(-c2c(N[C@@H]3CCCNC3)nc(N3CCOCC3)[nH]c2=O)n1 [Example 216, (R)-2-morpholino-5-(6-(2-oxopyrrolidin-1-yl)pyridin-2-yl)-6-(piperidin-3-ylamino)pyrimidin-4(3H)-one] | 
730 nM |  | O=c1[nH]c(C2CCN(C3CCC3)CC2)nc(N[C@@H]2CCCNC2)c1-c1nc2ccccc2s1 [Example 230, (R)-5-(1,3-benzothiazol-2-yl)-2-[1-cyclo-butylpiperidin-4-yl)-6-[(piperidin-3-yl)amino]-3,4-dihydropyrimidin-4-one] | 
250 nM |  | O=C(O)C1CN(c2nc(N[C@@H]3CCCNC3)c(-c3nc4ccccc4s3)c(=O)[nH]2)CCO1 (stereo partly drawn) [Example 320, 4-[5-(1,3-benzothiazol-2-yl)-6-oxo-4-[[(3R)-piperidin-3-yl]amino]-1,6-dihydropyrimidin-2-yl]morpholine-2-carboxylic acid] | 
150 nM |  | C[C@@H]1C[C@@H](Nc2nc(N3CCOCC3)[nH]c(=O)c2-c2nc3ccccc3s2)CN1 [Example 210, 5-(benzo[d]thiazol-2-yl)-6-(((3R,5R)-5-methylpyrrolidin-3-yl)amino)-2-morpholinopyrimidin-4(3H)-one] | 
210 nM |  | CC(C)S(=O)(=O)N1CCC(c2nc(N[C@@H]3CCCNC3)c(-c3nc4ccccc4s3)c(=O)[nH]2)CC1 [Example 237, 5-(1,3-benzothiazol-2-yl)-6-[[(3R)-piperidin-3-yl]amino]-2-[1-(propane-2-sulfonyl)piperidin-4-yl]-3,4-dihydropyrimidin-4-one] | 
